Experimental data published in US20220175675A1, “ENCAPSULATING MOLECULES IN FAT GLOBULES” (The Regents of the University of California, priority 2019, published 2022).

What was measured:
[1] = Loading of vitamin D3 in bovine milk fat globules; format: physicochemical; details: for EE %, 1% v/v ethanol / EE %, 10% v/v ethanol / LY, 1% v/v ethanol / LY, 10% v/v ethanol: Bovine MFGs, 30 minutes
Experimental: Raw milk was diluted with Milli-Q water at 9:1 water to milk. Cream was separated from diluted milk via centrifugation at 3,000×g for 5 min. Cream was collected and reconstituted in water at 4% w/v concentration. The mixture was then further centrifuged at 3,000×g for 5 min. The cream was then collected and reconstituted to desired weight/volume in water (20% w/v in water).
Encapsulation of VD3 was achieved by incubation of compound's ethanolic solution with 20% w/v cream suspended in water. Once well mixed by gently inverting the tube, the contents were allowed to incubate in the dark. […] Significant values were reported with a 95% confidence interval, i.e. p<0.05.
Incubation time was varied: 15, 30, 45, and 60 min. The effect of incubation time on the encapsulation of VD3 in bovine MFGs was assessed using a t-test with adjusted significance level using Bonferroni correction (p=0.008). These statistical analyses were carried out using Microsoft Excel 2010 (Microsoft Inc., Bellevue, WA, U.S.A.). All procedures were conducted with minimal exposure to light. The experiments were conducted in triplicates.
At the end of the incubation period with VD3, cream was separated by centrifuging the suspension at 3,000×g for 5 min Cream was skimmed off the top with particular care not to include any of the aqueous phase. Methanol was added at 50 mg/mL and vortexed vigorously for 1 min. The mixture was then centrifuged at 3,000×g for 30 min. Liquid phase was collected and absorbance was measured at 264 nm. Absorbance blank was prepared fresh during every encapsulation run by introducing ethanol to cream suspended in water. Absorbance of the blank was subtracted from test samples to remove the absorbance of solvent, lipids, and other MFGs components. All experiments were conducted in triplicates.
Fat content in cream was measured to calculate the loading yield. The fat was isolated using the same set of preparation steps detailed in Example 13 with the addition of the last centrifugation step to recover cream after at the end of the loading process. The total fat content was determined using a modified Folch method (Folch, Lees, & Sloane-Stanley, 1957) where an additional step of washing the chloroform/water interface with 1:1 water/methanol solution was added to remove milk serum components. The loading yield of VD3 in milk fat was calculated as follows: […]
where CE is the VD3 extracted from MFGs (μg), and MF is the mass of milk fat (g) in MFGs suspension. The extraction procedure was conducted in triplicates using independent milk samples.

[2] = Gastric stability of vitamin D3 in simulated gastric fluid (LC-MS); format: in vitro ADME; details: 2 h, 37° C., pH 3, pepsin
Experimental: Degradation of VD3 under the simulated gastric conditions was performed on free VD3 and encapsulated VD3. The simulated gastric fluid (SGF) was prepared according to the method of Minekus et al. (2014). In summary, electrolyte solution was prepared in Milli-Q water at 1.25× of the final concentration and stored at 37° C. To prepare 10 mL solution to be used in the digestion procedure: 7.5 mL SGF, 6 mg pepsin solubilized in 1.6 mL SGF, 5 μL of 0.3 M CaCl2(H2O)2 prepared in water and filtered through a 0.22 μm PSE syringe filter. The pH value was corrected to reach 3, and if needed, water was added to reach 10mL (approximately […]). The solution was then placed in a 37° C. incubator to equilibrate. Cream separated at the end of the incubation period with VD3 was suspended in water at 8% w/v and allowed to briefly incubate at 37° C.
The separated cream (250 mg) containing VD3, obtained as described before, was added to 5 mL of SGF. For the digestion of free VD3 in methanol, 25 μL of 40 mg/mL solution was added to […] of SGF. Solutions were briefly purged with nitrogen and sealed securely. Simulated digestion was carried for 2h at 37° C. At the end of the incubation step, ethanolic pyrogallol solution (10 mL, 1% w/v) was added and vortexed vigorously. Potassium hydroxide (2 mL, 50%w/v) was then added and mixed. […]

## C=C1CC[C@H](O)C/C1=C/C=C1\CCC[C@]2(C)[C@@H]([C@H](C)CCCC(C)C)CC[C@@H]12 [Cholecalciferol]
[1]; 50 μM
  EE %, 1% v/v ethanol: 20.81 ± 8.82%
  EE %, 10% v/v ethanol: 27.72 ± 7.94%
  LY, 1% v/v ethanol: 19.78 ± 8.38 μg of VD3 per gram of milk fat
  LY, 10% v/v ethanol: 26.34 ± 7.55 μg of VD3 per gram of milk fat
[1]; 100 μM
  EE %, 1% v/v ethanol: 18.45 ± 0.91%
  EE %, 10% v/v ethanol: 21.09 ± 1.10%
  LY, 1% v/v ethanol: 35.07 ± 1.73 μg of VD3 per gram of milk fat
  LY, 10% v/v ethanol: 40.09 ± 2.10 μg of VD3 per gram of milk fat
[1]; 150 μM
  EE %, 1% v/v ethanol: 15.43 ± 1.27%
  EE %, 10% v/v ethanol: 20.67 ± 1.97%
  LY, 1% v/v ethanol: 44.00 ± 3.63 μg of VD3 per gram of milk fat
  LY, 10% v/v ethanol: 58.93 ± 5.61^†¥ μg of VD3 per gram of milk fat
[1]; 200 μM
  EE %, 1% v/v ethanol: 12.31 ± 3.56%
  EE %, 10% v/v ethanol: 18.51 ± 1.52 %
  LY, 1% v/v ethanol: 46.78 ± 13.52 μg of VD3 per gram of milk fat
  LY, 10% v/v ethanol: 70.37 ± 5.79^†‡¥ μg of VD3 per gram of milk fat
[1]; 250 μM
  EE %, 1% v/v ethanol: 14.28 ± 1.89%
  EE %, 10% v/v ethanol: 16.85 ± 2.94 %
  LY, 1% v/v ethanol: 67.84 ± 9.00 μg of VD3 per gram of milk fat
  LY, 10% v/v ethanol: 80.07 ± 14.00 μg of VD3 per gram of milk fat
[1]; bovine MFGs
  VD3 loaded into MFGs (up to): Up to 80 μg/g milk fat
[1]; bovine MFGs, incubation up to 60 min vs 45 min, 10% v/v ethanol, 250 μM VD3
  reduction in the encapsulation yield with extended incubation: approx. 8%
[2]; listed as free VD3
  degradation/loss of VD3 in simulated gastric fluid: approximately 6%
[2]; listed as un-encapsulated VD3
  degradation/loss of VD3 in simulated gastric fluid: approximately 8%
